Data as given in paper PMC7136958, “Targeting the pregnane X receptor using microbial metabolite mimicry” (EMBO Molecular Medicine, 2020).
Where “and” joins values, the source holds several entries; their conditions need not be identical. Equal values may be shown once.

Experiments:
[1] = target: T1, SIRT1 (Homo sapiens, UniProt Q96EB6); experiment: Sirtuin (SIRT1) assay; assay type: biochemical; settings: substrate Acetylated peptide, replicates
T1 construct: full -length N-terminal His-tag protein (MW 83.2 kDa); His-tag (N); purchased Reaction Biology Corp; host or cells: E. coli
Method: Software Tool and reprinted with permission from KINOME scan®, a division of DiscoveRx […]
(§1) The following […] assays (HDAC, SIRT1, PRMT1, PARP1, p300, pCAF) were performed by Reaction Biology Corp. FKK6 was screened at a single concentration of 10 μM in duplicate in two separate experiments. The appropriate controls for the individual assays are published. The overall […]
(§2) enzyme activity in the assay is reported as a % activity in DMSO control wells. Control IC50 […]
(§3) Briefly, for the Sirtuin (SIRT1) assay, human SIRT1 (GenBank
Accession No. NM012238) full -length N-terminal His-tag protein (MW 83.2 kDa) was purified after expression in E. coli. The reaction buffer was freshly prepared and constituted 50 mM Tris-HC l ( p H 8), 137 mM NaCl, 2.7 mM KCl, 1 mM MgCl2, and just before use, 1 mg/mL BSA and 1% DMSO was added. The substrate was a fluorogenic acetylated peptide of p53 residues 379-382 (RHKK (Ac)- AM C) . In th e multi-well format, the 2X enzyme was mixed with the reaction buffer followed by compound (in 100% DMSO) titration via Acoustic technology (Echo550; LabCyte Inc, Sunnyvale, CA) in the nanoliter range. The mixture was spun down and 2X substrate (including NAD+) was added to initiate the reaction at 30° C at 2h under seal. […] Fluorescence kinetic measurements were conducted for 1.5 h in 15 min intervals using Envision (Ex 360nm/Em 460nm). […]

[2] = target: T2, PARP 1 (Homo sapiens, UniProt P09874); experiment: PARP assay (Reaction Biology); assay type: biochemical; settings: replicates
T2 construct: purchased Reaction Biology Corp. (RBC) PAR-21-346
Method: as §1, §2, §3
Accession No. NM012238) full -length N-terminal His-tag protein (MW 83.2 kDa) was purified after expression in E. coli. The reaction buffer was freshly prepared and constituted 50 mM Tris-HC l ( p H 8), 137 mM NaCl, 2.7 mM KCl, 1 mM MgCl2, and just before use, 1 mg/mL BSA and 1% DMSO was added. The substrate was a fluorogenic acetylated peptide of p53 residues 379-382 (RHKK (Ac)- AM C) . In th e multi-well format, the 2X enzyme was mixed with the reaction buffer followed by compound (in 100% DMSO) titration via Acoustic technology (Echo550; LabCyte Inc, Sunnyvale, CA) in the nanoliter range. The mixture was spun down and 2X substrate (including NAD+) was added to initiate the reaction at 30° C at 2h under seal. […] Fluorescence kinetic measurements were conducted for 1.5 h in 15 min intervals using Envision (Ex 360nm/Em 460nm). […] The compound mixture was placed on filter paper and washed with 0.75% phosphoric acid and radioactivity counted. […]

[3] = read-out: % Enzyme Activity to DMSO controls

T2 sequence (P09874 whole entry, species assumed): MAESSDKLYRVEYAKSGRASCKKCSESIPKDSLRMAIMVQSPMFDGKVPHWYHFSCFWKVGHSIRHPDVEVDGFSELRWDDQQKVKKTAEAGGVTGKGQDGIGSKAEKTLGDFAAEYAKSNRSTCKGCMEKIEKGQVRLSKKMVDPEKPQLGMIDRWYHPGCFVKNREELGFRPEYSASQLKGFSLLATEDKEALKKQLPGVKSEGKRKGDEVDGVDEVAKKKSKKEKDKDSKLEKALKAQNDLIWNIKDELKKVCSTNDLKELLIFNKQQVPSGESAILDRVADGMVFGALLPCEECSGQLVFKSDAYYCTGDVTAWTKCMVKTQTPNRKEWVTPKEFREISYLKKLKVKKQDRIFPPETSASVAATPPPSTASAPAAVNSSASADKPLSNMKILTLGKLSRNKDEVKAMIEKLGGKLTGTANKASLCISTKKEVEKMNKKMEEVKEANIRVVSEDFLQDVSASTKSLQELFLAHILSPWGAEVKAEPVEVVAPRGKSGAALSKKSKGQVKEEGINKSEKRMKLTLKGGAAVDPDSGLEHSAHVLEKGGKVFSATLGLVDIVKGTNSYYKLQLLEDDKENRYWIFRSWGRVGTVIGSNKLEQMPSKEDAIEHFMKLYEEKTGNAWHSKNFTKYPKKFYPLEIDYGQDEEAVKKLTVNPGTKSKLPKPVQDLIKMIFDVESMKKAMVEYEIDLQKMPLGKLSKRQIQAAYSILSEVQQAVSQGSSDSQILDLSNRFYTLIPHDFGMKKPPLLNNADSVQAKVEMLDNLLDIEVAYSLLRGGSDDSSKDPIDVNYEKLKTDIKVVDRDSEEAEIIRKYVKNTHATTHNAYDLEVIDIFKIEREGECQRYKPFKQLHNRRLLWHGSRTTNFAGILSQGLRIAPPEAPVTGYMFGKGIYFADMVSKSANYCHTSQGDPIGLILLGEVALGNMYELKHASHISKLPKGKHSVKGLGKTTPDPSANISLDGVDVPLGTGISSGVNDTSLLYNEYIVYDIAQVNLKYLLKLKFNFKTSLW
T1 sequence (Q96EB6 whole entry): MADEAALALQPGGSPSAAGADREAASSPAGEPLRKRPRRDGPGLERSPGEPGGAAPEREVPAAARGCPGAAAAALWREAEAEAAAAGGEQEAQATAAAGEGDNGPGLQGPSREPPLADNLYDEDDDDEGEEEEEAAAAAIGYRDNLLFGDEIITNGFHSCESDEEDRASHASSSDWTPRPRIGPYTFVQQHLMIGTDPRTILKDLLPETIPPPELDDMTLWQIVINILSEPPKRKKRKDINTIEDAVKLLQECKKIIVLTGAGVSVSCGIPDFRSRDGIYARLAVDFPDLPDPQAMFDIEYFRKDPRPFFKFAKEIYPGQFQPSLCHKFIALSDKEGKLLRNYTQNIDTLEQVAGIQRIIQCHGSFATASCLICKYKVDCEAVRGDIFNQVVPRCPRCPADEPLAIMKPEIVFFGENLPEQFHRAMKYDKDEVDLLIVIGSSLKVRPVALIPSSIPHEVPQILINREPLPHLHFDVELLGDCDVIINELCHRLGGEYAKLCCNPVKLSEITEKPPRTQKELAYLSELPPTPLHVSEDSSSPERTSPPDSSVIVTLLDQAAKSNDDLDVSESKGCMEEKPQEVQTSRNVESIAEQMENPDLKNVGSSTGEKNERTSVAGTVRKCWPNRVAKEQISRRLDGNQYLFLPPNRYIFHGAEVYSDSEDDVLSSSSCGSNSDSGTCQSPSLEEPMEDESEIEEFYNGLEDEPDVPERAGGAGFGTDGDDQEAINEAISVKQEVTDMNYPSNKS

C#CCC(O)(c1ccncc1)c1cc2ccccc2n1S(=O)(=O)c1ccccc1 (stereo not shown) [FKK6]
% Enzyme Activity to DMSO controls ([1]; 10 μM): 100.03% and 99.84% and 94.47%
remaining activity at 10 µM [1, 3]: 100%
% Enzyme Activity to DMSO controls ([2]; 10 μM): 98.25% and 91.38% and 91.03%
remaining activity at 10 µM [2, 3]: 99.2%
